{"source": "paper PMC11674187", "about": "“Inhibitory Effects of Cenobamate on Multiple Human Cardiac Ion Channels and Possible Arrhythmogenic Consequences” (Biomolecules, 2024)", "molecular_target": "T1, hKv7.1 + minK (Homo sapiens, UniProt P51787)", "T1 construct": "host or cells: HEK293T", "T1 sequence (P51787 whole entry, canonical isoform)": "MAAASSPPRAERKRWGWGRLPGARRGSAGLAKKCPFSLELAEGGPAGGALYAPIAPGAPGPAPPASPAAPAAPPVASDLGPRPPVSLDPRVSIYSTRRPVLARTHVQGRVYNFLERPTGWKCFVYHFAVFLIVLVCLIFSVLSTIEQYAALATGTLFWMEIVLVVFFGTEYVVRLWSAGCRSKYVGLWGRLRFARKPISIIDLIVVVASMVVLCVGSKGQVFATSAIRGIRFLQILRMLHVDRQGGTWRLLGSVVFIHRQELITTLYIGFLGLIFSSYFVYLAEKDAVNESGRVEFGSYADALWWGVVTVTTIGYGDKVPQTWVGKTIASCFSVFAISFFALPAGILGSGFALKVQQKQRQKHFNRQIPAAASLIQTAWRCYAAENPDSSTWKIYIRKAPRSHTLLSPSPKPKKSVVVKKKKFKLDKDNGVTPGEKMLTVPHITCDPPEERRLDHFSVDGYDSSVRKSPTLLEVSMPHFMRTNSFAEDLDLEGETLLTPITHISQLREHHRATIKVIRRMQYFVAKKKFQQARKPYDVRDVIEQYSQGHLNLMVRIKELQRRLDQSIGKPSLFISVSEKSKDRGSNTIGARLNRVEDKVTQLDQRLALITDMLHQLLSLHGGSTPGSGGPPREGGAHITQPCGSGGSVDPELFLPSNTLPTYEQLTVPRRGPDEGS", "experiment": "Whole-cell patch-clamp on HEK293T cells, IKs", "format": "cell-based", "details": "for inhibition at 200 µM: HEK-293T", "experimental": "Experiments were performed on HEK293T cell lines with persistent/inducible expression of different human cardiac ion channel isoforms: hNav1.5 and hKv7.1 + minK (Anaxon AG, Bern, Switzerland), hCav1.2 (α1c + β2 + α2δ1) (B’SYS GmbH, Witterswil, Switzerland), and hKv11.1 (hERG) (Cytocentrics Bioscience GmbH, Rostock, Germany). The cell lines were grown in standard conditions (37 °C, 5% CO2, 90% humidity) in DMEM:F12 medium (D8900, Sigma-Aldrich, Burlington, MA, USA) buffered with 15 mM HEPES, containing 3.15 g/L D-glucose and 0.055 g/L sodium pyruvate, supplemented with 1.2 g/L sodium bicarbonate, 10% fetal bovine serum (F2442, Sigma-Aldrich, Burlington, MA, USA), 2 mM L-glutamine (G7513, Sigma-Aldrich, Burlington, MA, USA), 1% penicillin–streptomycin (P4333, Sigma-Aldrich, Burlington, MA, USA), and with specific antibiotics for selection of transfected cells or induction of gene expression according to manufacturers’ instructions. The medium was changed every 2–3 days and the cells were passed weekly upon detachment with trypsin–EDTA solution. All cell culture media and solutions were sterile filtered with 0.22 μm polyvinylidene fluoride filters. Ncyte® vCardiomyocytes (Ncardia, Leiden, The Netherlands) were cultured in 24-well plates precoated with bovine fibronectin, following manufacturer’s instructions. For the experiments, cardiomyocytes were detached as described previously and plated on ϕ 10 mm glass coverslips, like the other cell lines.\nManual whole-cell patch-clamp experiments were performed at room temperature, with equipment as described in previous studies. Pipettes were pulled from Clark borosilicate glass capillaries with inner filament (GC150F-10, Harvard Apparatus, Holliston, MA, USA) and had typical resistances of 2–3 MΩ. Recordings were performed with a WPC-100 resistive feedback amplifier (ESF electronic, Göttingen, Germany) or an Axopatch 200B amplifier (Axon Instruments—Molecular Devices, San Jose, CA, USA) connected to a Digidata 1322A interface driven by the pClamp 8.2 Clampex module (Axon Instruments, part of Molecular Devices, San Jose, CA, USA). […]", "note": "Like-named read-outs stand apart in the source and are kept apart here.", "data": [{"smiles": "NC(=O)O[C@@H](Cn1ncnn1)c1ccccc1Cl", "note": "[cenobamate]", "values": [{"measurement": "IC50", "value": "> 200", "unit": "µM"}, {"measurement": "inhibition at 200 µM", "setting": "cenobamate 200 µM, mean (SD), n = 8, not corrected for control rundown 23.66%, read-out: average inhibition of IKs plateau current at +60 mV", "value": "36.7 ± 13", "unit": "%"}, {"measurement": "inhibition at 200 µM", "setting": "cenobamate 200 µM, read-out: estimated net average IKs inhibition (cenobamate 200 µM − control)", "value": 13, "unit": "%"}, {"measurement": "average inhibition of IKs plateau current at +60 mV", "setting": "cenobamate 200 µM, mean (SD), n = 8, not corrected for control rundown 23.66%", "value": "36.68 ± 13.02", "unit": "%"}]}]}
